Results reported in PMC6348446 (Journal of Medicinal Chemistry, 2018).
Values joined by “and” are separate entries in the source; they are usually repeats but may differ in a detail not shown here. Equal entries are not always repeated.

How the values were obtained:
[1] = biological target: T1, VCB in the presence of BRD9-BD (Homo sapiens, UniProt P40337+Q9H8M2); assay: Fluorescence polarization, displacement of FAM-labeled HIF-1α peptide in the presence of BRD9-BD (ternary); format: binding; conditions: binary versus ternary
T1 construct: the bromodomain (residues 134–239) for BRD9 (Q9H8M2); His6 (cleaved yes); made in house; host or cells: Escherichia coli BL21(DE3)

[2] = biological target: T2, BRD9 bromodomain (BRD9-BD) (Homo sapiens, UniProt Q9H8M2); assay: ITC, BRD9-BD titrated into PROTAC (binary); format: binding; conditions: 25 °C
T2 construct: the bromodomain (residues 134–239) for BRD9 (Q9H8M2); His6 (cleaved yes); made in house; host or cells: Escherichia coli BL21(DE3)
T2 sequence (Q9H8M2 134-239): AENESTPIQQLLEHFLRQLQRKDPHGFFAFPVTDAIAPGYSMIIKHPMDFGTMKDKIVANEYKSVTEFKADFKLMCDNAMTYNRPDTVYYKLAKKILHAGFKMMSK

[3] = biological target: T3, VCB:PROTAC:BRD9-BD ternary complex (Homo sapiens, UniProt P40337+Q9H8M2); assay: AlphaLISA proximity assay of ternary complex formation; format: binding; conditions: for AlphaLISA max intensity: biotinylated VCB 100 nM, His6-BRD9-bromodomain 100 nM
T3 construct: the bromodomain (residues 134–239) for BRD9 (Q9H8M2); made in house; host or cells: Escherichia coli BL21(DE3)
Description: All assays were performed at room temperature in 384-well plates with a final assay volume of 25 μL per well, as described previously.[5] All reagents were prepared as 5× stocks diluted in 50 mM HEPES, pH 7.5, 100 mM NaCl, 0.1% (w/v) bovine serum albumin, and 0.02% (w/v) 3-[(cholamidopropyl)dimethylammonio]-1-propanesulfonate (CHAPS). Plates were sealed by transparent film and briefly centrifuged at 100g between additions of reagents. Biotinylated VCB (100 nM final) and His6-BRD9-bromodomain (100 nM final) were incubated with a range of PROTAC concentrations (0.5–2000 nM; two-in-one serial dilution) for 1 h. Streptavidin-coated donor beads and nickel chelate acceptor beads (PerkinElmer) were added to a final concentration of 10 μg mL^–1, and plates were incubated for another hour. Plates were read on a PHERAstar FS (BMG Labtech) using an optic module with an excitation wavelength of 680 nm and emission wavelength of 615 nm. Intensity values were plotted against PROTAC concentration on a log10 scale using GraphPad Prism, version 7. To obtain biotinylated-VCB, protein was mixed with EZ-link NHS-PEG4-biotin (Thermo Scientific) in a 1:1 molar ratio and incubated at room temperature for 1 h. The reaction was quenched using 1 M Tris-HCl, pH 7.5, and unreacted NHS-biotin was removed with a PD-10 MiniTrap desalting column (GE Healthcare) equilibrated with 20 mM HEPES, pH 7.5, 150 mM NaCl, and 1 mM DTT.

[4] = biological target: T4, VCB (VHL-ElonginC-ElonginB complex) (Homo sapiens, UniProt P40337); assay: ITC, VCB titrated into PROTAC alone (binary); format: binding; conditions: 25 °C
T4 construct: His6 (cleaved yes); made in house; host or cells: Escherichia coli BL21(DE3)

[5] = biological target: T5, VCB and BRD9-BD (ternary complex) (Homo sapiens, UniProt P40337+Q9H8M2); assay: ITC, VCB titrated into BRD9-BD:PROTAC binary complex (ternary); format: binding; conditions: 25 °C; for N (stoichiometry), VCB into BRD9-BD:PROTAC complex / ΔG, VCB into BRD9-BD:PROTAC complex / ΔH, VCB into BRD9-BD:PROTAC complex / –TΔS, VCB into BRD9-BD:PROTAC complex: ITC; for cooperativity α (ITC): binary versus ternary VCB binding
T5 construct: the bromodomain (residues 134–239) for BRD9 (Q9H8M2); His6 (cleaved yes); made in house; host or cells: Escherichia coli BL21(DE3)

[6] = Parallel Artificial Membrane Permeability Assay (PAMPA); format: in vitro ADME; conditions: for PAMPA pH 7.4 HIGH/MED/LOW: permeability class; for PAMPA pH 7.4 HIGH/MED/LOW / recovery at 5 h, 10 µM: pH 7.4
Description: Test compound (10 µM) was incubated in pre-warmed plasma at 37 ᵒC (that is buffered to pH 7.4 in ratio of 70:30 plasma to buffer). Immediately, at time zero, then at 30, 60, 120, and 180 min, a 50 µL aliquot of the incubation mixture was removed and mixed with 200 µL acetonitrile containing Donepezil as the internal standard (50 ng/ml) to stop the reaction. The samples were centrifuged to sediment the precipitated protein and the plates then sealed prior to UPLC-MS/MS analysis using a Xevo TQ-S Micro (Waters Corporation, USA).
XLfit (IDBS, UK) was used to calculate the exponential decay and consequently the rate constant (k) from the ratio of peak area of test compound to internal standard at each time point. The half-life was calculated for each test compound from the rate by using the […]
Parallel Artificial Membrane Permeability Assay (PAMPA)
PAMPA was performed using a 96-well pre-coated BD Gentest™ PAMPA plate (BD Biosciences, U.K.). Each well was divided into two chambers; donor and acceptor, separated by a lipid-oil-lipid tri-layer constructed in a porous filter. The effective permeability, Pe, of the compound was measured at pH 7.4. Stock solutions (5 mM) of the compound were prepared in DMSO. The compound was then further diluted to 10 µM in phosphate buffered […]
saline at pH 7.4. […] The compound […]
dissolved in phosphate buffered saline was then added to the donor side of the membrane and phosphate buffered saline without compound was added to the acceptor side. The PAMPA plate was left at room temperature for 5 h. After which time, an aliquot (100 µL) was then […]
removed from both acceptor and donor compartments and mixed with acetonitrile (80 µL) containing an internal standard. The samples were centrifuged (10 min, 5 °C, 3270 g) to sediment precipitated protein and sealed prior to UPLC-MS/MS analysis using a Xevo TQ-S Micro (Waters Corp, USA). Pe was calculated as shown in the below equation: […]
CA(t) = peak area of compound present in acceptor well at time t = 18000 s Cequi = [CD(t) x VD + CA(t) x VA] / (VD + VA)
VA = acceptor well volume
CD(t) = peak area of compound present in donor well at time t = 18000 s Recovery of compound from donor and acceptor wells was calculated and data was only accepted when recovery exceeded 70%.
Using a fast gradient, reverse-phase HPLC method to determine the chromatographic hydrophobicity index (CHI) was determined as described by Camurri and Zaramella (ref. 3) and Valko et al. (ref. 4). Briefly, by plotting the retention time of a set of reference

T3 sequence (P40337 54-213 limits assumed, one chain of several): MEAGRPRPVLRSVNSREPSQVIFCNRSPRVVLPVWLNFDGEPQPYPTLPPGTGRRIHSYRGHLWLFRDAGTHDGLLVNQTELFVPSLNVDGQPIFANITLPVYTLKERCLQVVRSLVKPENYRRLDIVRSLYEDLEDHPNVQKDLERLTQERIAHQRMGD
T3 sequence (Q15369 17-112 partner limits assumed, one chain of several): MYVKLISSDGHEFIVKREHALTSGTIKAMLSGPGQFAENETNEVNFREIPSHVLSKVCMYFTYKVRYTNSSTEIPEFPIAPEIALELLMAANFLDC
T3 sequence (Q15370 1-104 partner limits assumed, one chain of several): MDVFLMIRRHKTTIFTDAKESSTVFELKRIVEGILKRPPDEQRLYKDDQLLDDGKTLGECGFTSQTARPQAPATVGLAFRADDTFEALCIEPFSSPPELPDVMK
T5 sequence (P40337 54-213 limits assumed, one chain of several): as the sequence (P40337 54-213 limits assumed, one chain of several) above
T5 sequence (Q15369 17-112 partner limits assumed, one chain of several): as the sequence (Q15369 17-112 partner limits assumed, one chain of several) above
T5 sequence (Q15370 1-104 partner limits assumed, one chain of several): as the sequence (Q15370 1-104 partner limits assumed, one chain of several) above
T1 sequence (P40337 54-213 limits assumed, one chain of several): as the sequence (P40337 54-213 limits assumed, one chain of several) above
T1 sequence (Q15369 17-112 partner limits assumed, one chain of several): as the sequence (Q15369 17-112 partner limits assumed, one chain of several) above
T1 sequence (Q15370 1-104 partner limits assumed, one chain of several): as the sequence (Q15370 1-104 partner limits assumed, one chain of several) above
T4 sequence (P40337 54-213 limits assumed): as the sequence (P40337 54-213 limits assumed, one chain of several) above
T4 sequence (Q15369 17-112 partner limits assumed): as the sequence (Q15369 17-112 partner limits assumed, one chain of several) above
T4 sequence (Q15370 1-104 partner limits assumed): as the sequence (Q15370 1-104 partner limits assumed, one chain of several) above

Compound | cooperativity α (FP) [1] | N (stoichiometry), BRD9-BD into PROTAC [2] | ΔG, BRD9-BD into PROTAC [2] | AlphaLISA max intensity [3] | N (stoichiometry), VCB into PROTAC alone [4] | ΔG, VCB into PROTAC alone [4] | ΔH, VCB into PROTAC alone [4] | N (stoichiometry), VCB into BRD9-BD:PROTAC complex [5] | ΔG, VCB into BRD9-BD:PROTAC complex [5] | ΔH, VCB into BRD9-BD:PROTAC complex [5] | –TΔS, VCB into BRD9-BD:PROTAC complex [5] | ΔH, BRD9-BD into PROTAC [2] | –TΔS, VCB into PROTAC alone [4] | PAMPA pH 7.4 Pe ([6]; pH 7.4, 5 h) | recovery at 5 h, 10 µM ([6]; PAMPA) | PAMPA pH 7.4 HIGH/MED/LOW [6] | other results
COc1cc(-c2cn(C)c(=O)c3cnccc23)cc(OC)c1CN1CCN(CCOCCOCC(=O)N[C@H](C(=O)N2C[C@H](O)C[C@H]2C(=O)NCc2ccc(-c3scnc3C)cc2)C(C)(C)C)CC1 [Compound 5, (2S,4R)-1-((S)-2-(2-(2-(2-(4-(2,6-Dimethoxy-4-(2-methyl-1-oxo-1,2-dihydro-2,7-naphthyridin-4-yl)benzyl)piperazin-1-yl)ethoxy)ethoxy)acetamido)-3,3-dimethylbutanoyl)-4-hydroxy-N-(4-(4-methylthiazol-5-yl)benzyl)pyrrolidine-2-carboxamide] | 0.24 | 0.753 ± 0.004 | –10.7 ± 0.1 kcal/mol | 1.0 × 10^6 | 0.60 ± 0.01 | –10.2 ± 0.1 kcal/mol | –15.2 ± 0.1 kcal/mol | 0.75 ± 0.05 | –9.7 ± 0.1 kcal/mol | –6.4 ± 0.1 kcal/mol | –3.3 ± 0.1 kcal/mol |  |  |  |  |  | 
COc1cc(-c2cn(C)c(=O)c3cnccc23)cc(OC)c1CN1CCN(CCCCCOc2cc(-c3scnc3C)ccc2CNC(=O)[C@@H]2C[C@@H](O)CN2C(=O)[C@@H](NC(=O)C2(F)CC2)C(C)(C)C)CC1 [Compound 51, (2S,4R)-N-(2-((5-(4-(2,6-Dimethoxy-4-(2-methyl-1-oxo-1,2-dihydro-2,7-naphthyridin-4-yl)benzyl)piperazin-1-yl)pentyl)oxy)-4-(4-methylthiazol-5-yl)benzyl)-1-((S)-2-(1-fluorocyclopropane-1-carboxamido)-3,3-dimethylbutanoyl)-4-hydroxypyrrolidine-2-carboxamide] | 1.00 | 0.77 | –11.35 ± 0.05 kcal/mol | 1.47 × 10^6 | 0.73 | –10.4 ± 0.2 kcal/mol | –7.04 ± 0.08 kcal/mol | 0.73 | –10.33 ± 0.08 kcal/mol | –5.1 ± 0.1 kcal/mol | –5.3 ± 0.1 kcal/mol | –12.8 ± 0.1 kcal/mol | –3.4 ± 0.1 kcal/mol | 0.01 nm/s |  |  | PAMPA pH 7.4 HIGH/MED/LOW ([6]; listed as VZ185): LOW and low cell permeability; cooperativity α (ITC) ([5]; listed as VZ185): 0.97 and 0.96
COc1cc(-c2cn(C)c(=O)c3cnccc23)cc(OC)c1CN1CCN(CCOCCOCCOc2cc(-c3scnc3C)ccc2CNC(=O)[C@@H]2C[C@@H](O)CN2C(=O)[C@@H](NC(=O)C2(F)CC2)C(C)(C)C)CC1 [Compound 26, (2S,4R)-N-(2-(2-(2-(2-(4-(2,6-Dimethoxy-4-(2-methyl-1-oxo-1,2-dihydro-2,7-naphthyridin-4-yl)benzyl)piperazin-1-yl)ethoxy)ethoxy)ethoxy)-4-(4-methylthiazol-5-yl)benzyl)-1-((S)-2-(1-fluorocyclopropane-1-carboxamido)-3,3-dimethylbutanoyl)-4-hydroxypyrrolidine-2-carboxamide] | 1.17 | 1.00 | –11.0 ± 0.1 kcal/mol | 1.56 × 10^6 | 0.99 | –9.64 ± 0.03 kcal/mol | –6.56 ± 0.09 kcal/mol | 0.99 | –9.7 ± 0.2 kcal/mol | –6.4 ± 0.2 kcal/mol | –3.3 ± 0.2 kcal/mol | –11.4 ± 0.1 kcal/mol | –3.1 ± 0.1 kcal/mol | 0.01 nm/s | 94% | LOW and low cell permeability | –TΔS, BRD9-BD into PROTAC [2]: 0.44 ± 0.05 kcal/mol; increase in the maximum α intensity compared to VCB:5:BRD9-BD ([3]; AlphaLISA): 50%; cooperativity α (ITC) [5]: 1 and 1.05
COc1cc(-c2cn(C)c(=O)c3cnccc23)cc(OC)c1CN1CCN(CCCCCOc2cc(-c3scnc3C)ccc2CNC(=O)[C@@H]2C[C@H](O)CN2C(=O)[C@@H](NC(=O)C2(F)CC2)C(C)(C)C)CC1 [cisVZ185] |  |  |  |  |  |  |  |  |  |  |  |  |  |  | 87% | LOW | Papp at 5 h, 10 µM ([6]; PAMPA, pH 7.4, 5 h, read-out: PAMPA pH 7.4 Pe): 0.036 ×10⁻⁶ cm/s
